Results published in paper PMC10979456, “Trinucleotide mRNA Cap Analogue N6-Benzylated at the Site of Posttranscriptional ^m6Am Mark Facilitates mRNA Purification and Confers Superior Translational Properties In Vitro and In Vivo” (Journal of the American Chemical Society, 2024).

Key:
Test in all cases: time-synchronized fluorescence quenching titration
Format in all cases: binding
heIF4E3 = target: T1, heIF4E3 (Homo sapiens, UniProt Q8N5X7)
T1 construct: gene EIF4E3; not described in main text (experimental details in supplement)
T1 sequence (Q8N5X7 whole entry): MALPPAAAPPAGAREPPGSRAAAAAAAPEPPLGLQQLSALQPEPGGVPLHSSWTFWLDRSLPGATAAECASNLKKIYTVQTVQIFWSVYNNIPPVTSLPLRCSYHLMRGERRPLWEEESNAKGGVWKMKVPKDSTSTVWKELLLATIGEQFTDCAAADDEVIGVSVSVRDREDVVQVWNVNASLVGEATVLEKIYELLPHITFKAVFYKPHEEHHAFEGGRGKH
From the text: time-synchronized fluorescence quenching titration on heIF4E3

h4EHP (eIF4E2) = target: T2, h4EHP (eIF4E2) (Homo sapiens, UniProt O60573)
T2 construct: not described in main text (experimental details in supplement)
T2 sequence (O60573 1-245): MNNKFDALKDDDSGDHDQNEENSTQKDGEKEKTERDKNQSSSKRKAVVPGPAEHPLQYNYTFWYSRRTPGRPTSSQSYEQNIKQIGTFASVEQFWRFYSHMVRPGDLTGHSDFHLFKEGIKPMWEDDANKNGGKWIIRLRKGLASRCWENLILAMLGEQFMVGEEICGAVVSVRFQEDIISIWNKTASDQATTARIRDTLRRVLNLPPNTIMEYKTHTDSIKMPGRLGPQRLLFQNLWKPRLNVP
From the text: time-synchronized fluorescence quenching titration on h4EHP (eIF4E2)

heIF4E1a = target: T3, heIF4E1a (Homo sapiens, UniProt P06730)
T3 construct: gene EIF4E; not described in main text (experimental details in supplement)
T3 sequence (P06730 2-217): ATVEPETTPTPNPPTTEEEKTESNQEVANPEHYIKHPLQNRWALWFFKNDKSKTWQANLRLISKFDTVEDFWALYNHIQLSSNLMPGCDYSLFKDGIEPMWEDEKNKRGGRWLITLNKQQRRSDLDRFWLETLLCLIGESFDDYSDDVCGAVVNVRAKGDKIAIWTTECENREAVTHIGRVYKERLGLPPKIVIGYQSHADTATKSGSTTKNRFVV

Row | Structure (SMILES) | Kd (heIF4E3) [nM] | Kd (h4EHP (eIF4E2)) [nM] | Kd (heIF4E1a) [nM]
1 | CO[C@@H]1[C@H](OP(=O)(O)OC[C@H]2O[C@@H](n3cnc4c(=O)[nH]c(N)nc43)[C@H](O)[C@@H]2O)[C@@H](COP(=O)(O)OP(=O)(O)OP(=O)(O)OC[C@H]2O[C@@H](n3c[n+](C)c4c(=O)[nH]c(N)nc43)[C@H](O)[C@@H]2O)O[C@H]1n1cnc2c(N)ncnc21 [m^7GpppAmpG] | 153 ± 3 | 1020 ± 19 | 42.1 ± 0.7
2 | CO[C@@H]1[C@H](OP(=O)(O)OC[C@H]2O[C@@H](n3cnc4c(=O)[nH]c(N)nc43)[C@H](O)[C@@H]2O)[C@@H](COP(=O)(O)OP(=O)(O)OP(=O)(O)OC[C@H]2O[C@@H](n3c[n+](C)c4c(=O)[nH]c(N)nc43)[C@H](O)[C@@H]2O)O[C@H]1n1cnc2c(NCc3ccccc3)ncnc21 [compound 1, m^7Gppp^Bn6AmpG] | 95.7 ± 1.7 | 687 ± 10 | 23.9 ± 0.5
3 | C[n+]1cn([C@@H]2O[C@H](COP(=O)(O)OP(=O)(O)OP(=O)(O)O)[C@@H](O)[C@H]2O)c2nc(N)[nH]c(=O)c21 [m^7GTP] | 129 ± 14 | 611 ± 19 | –
4 | CNc1ncnc2c1ncn2[C@@H]1O[C@H](COP(=O)(O)OP(=O)(O)OP(=O)(O)OC[C@H]2O[C@@H](n3c[n+](C)c4c(=O)[nH]c(N)nc43)[C@H](O)[C@@H]2O)[C@@H](OP(=O)(O)OC[C@H]2O[C@@H](n3cnc4c(=O)[nH]c(N)nc43)[C@H](O)[C@@H]2O)[C@H]1OC [m^7Gppp^m6AmpG] | 140 ± 4 | 1340 ± 32 | 46.4 ± 0.6
